Measured values as given in paper PMC5247654, “Structural Mechanism Underpinning Cross-reactivity of a CD8^+ T-cell Clone That Recognizes a Peptide Derived from Human Telomerase Reverse Transcriptase” (The Journal of Biological Chemistry, 2016).
Like-named read-outs stand apart in the source and are kept apart here.

How the values were obtained:
ILA1 TCR [1] = settings: SPR, cited from earlier work; for Kd: equilibrium binding
[2] = pMHC thermal stability by circular dichroism; type: physicochemical; settings: CD thermal denaturation at 218 nm, PBS, ∼3 μM, 0.1-cm cell, two-state trimer-to-monomer fit
Protocol: Thermal stability of the HLA-A*0201-peptide complexes was assessed by circular dichroism spectroscopy, monitoring the change in ellipticities at 218 nm upon heating as described ([31]). Briefly, samples were prepared in PBS at a concentration of ∼3 μM and measured in 0.1-cm quartz cells. Melting curves were analyzed assuming a two-state trimer-to-monomer transition from the native to unfolded conformation and fitted as described ([43]). As all protein complexes aggregated to various degrees upon unfolding, the ellipticity of the unfolded state was set as a constant of −1.35 M^−1 cm^−1 ([44]).

ILA1 TCR [3] = assay: Surface plasmon resonance binding of ILA1 TCR to HLA-A*0201-ILA peptide variants; parameters: species or system human; settings: 25 °C; for Kd: equilibrium binding, SPR, serial dilutions in duplicate, three independent experiments
Protocol: Binding analysis was performed in duplicate using a BIAcoreT200^TM equipped with a CM5 sensor chip as described previously ([45]). Approximately 200–500 response units of HLA-A*0201-[…] or HLA-A*0201-[…] peptide complex was attached to the CM5 sensor chip at a slow flow rate of 10 μl/min to ensure uniform distribution on the chip surface. […] For equilibrium analysis, 10 serial dilutions were prepared in duplicate for each sample and injected over the relevant sensor chips at 25 °C. TCR was injected over the chip surface using kinetic injections at a flow rate of 45 μl/min using HLA-A*0201-[…] as a negative control surface on flow cell 1. Results were analyzed using BIAevaluation^TM 3.1, Excel, and Origin 6.0 software. The equilibrium dissociation constant (KD) values were calculated assuming a 1:1 interaction by plotting specific equilibrium binding responses against protein concentrations followed by non-linear least square fitting of the Langmuir binding equation. For kinetics analysis, the kon and koff values were calculated assuming 1:1 Langmuir binding, and the data were analyzed using a global fit algorithm (BIAevaluation 3.1).

[4] = target: altered peptide ligand of human telomerase reverse transcriptase 540-548 (A2-ILA8T) peptide on HLA-A*02:01 (human); assay: SPR, equilibrium binding; data from (39); soluble, other
[5] = target: altered peptide ligand of human telomerase reverse transcriptase 540-548 (A2-ILA3G8R) peptide on HLA-A*02:01 (human); assay: SPR, equilibrium binding at 25 °C, new data of this article; soluble, other
[6] = target: altered peptide ligand of human telomerase reverse transcriptase 540-548 peptide on HLA-A*02:01 (human); assay: SPR, equilibrium binding; kinetics n/m (too fast to measure); data from (39); soluble, other
[7] = target: human telomerase reverse transcriptase peptide on HLA-A*02:01 (human); assay: van 't Hoff analysis of SPR affinities at 5-37 °C; soluble, other
[8] = target: altered peptide ligand of human telomerase reverse transcriptase 540-548 peptide on HLA-A*02:01 (human); assay: SPR, equilibrium binding; data from (17); soluble, other
[9] = target: altered peptide ligand of human telomerase reverse transcriptase 540-548 peptide on HLA-A*02:01 (human); assay: SPR, equilibrium binding; data from (16); soluble, other
[10] = target: altered peptide ligand of human telomerase reverse transcriptase 540-548 peptide on HLA-A*02:01 (human); assay: SPR, equilibrium binding; kinetics n/m (too fast to measure); data from (39); soluble, other; remark: listed apart in the source
[11] = target: altered peptide ligand of human telomerase reverse transcriptase 540-548 (A2-ILA8E) peptide on HLA-A*02:01 (human); assay: SPR, equilibrium binding; kinetics n/m; data from (39); extremely weak against the index A2-ILA ([…] μM); soluble, other
[12] = target: altered peptide ligand of human telomerase reverse transcriptase 540-548 (A2-ILA8R) peptide on HLA-A*02:01 (human); assay: SPR, equilibrium binding at 25 °C, new data of this article; kinetics n/m (too fast to measure); much weaker than the index A2-ILA ([…] μM); soluble, other
[13] = target: altered peptide ligand of human telomerase reverse transcriptase 540-548 peptide on HLA-A*02:01 (human); assay: SPR, equilibrium binding; data from (17); soluble, other; remark: listed apart in the source
[14] = SPR BIAcore T200, ILA1 TCR injected over immobilised pMHC, 1:1 Langmuir global fit

Substance | koff (ILA1 TCR [1]) | kon (ILA1 TCR [1]) | Kd (ILA1 TCR [1]) | apparent Tm (melting temperature) [2] | also measured
ILAKYLHWL | 0.32 s⁻¹ | 1300 M⁻¹ s⁻¹ | 242 ± 20 µM | – | –
ILGKFLHWL | 0.05 s⁻¹ | 16000 M⁻¹ s⁻¹ | 3.7 ± 0.2 µM | 49.8 °C | –
ILAKFLHRL | – | – | – | 60.9 °C | Kd (ILA1 TCR [3]): 151 ± 8 µM
ILGKFLHTL | 0.05 s⁻¹ | 19500 M⁻¹ s⁻¹ | 2.5 ± 0.5 µM | 55.6 °C | –
ILAKFLHYL | – | – | 22.6 ± 2.1 µM | – | –
ILA1 TCR | – | – | – | – | Kd [4]: 28 µM; Kd [5]: 1 µM; Kd [6]: 22.6 µM; TΔS [7]: 5.86 kcal/mol; Kd [8]: 242 µM; Kd [9]: 117 µM; Kd [10]: 82 µM; Kd [11]: > 500 µM; Kd [12]: 151 µM; Kd [13]: 2.5 µM
ILAKFLHEL | – | – | > 500 µM | 58.8 °C | –
ILAKFLHWL | – | – | – | 54.5 °C | –
ILALFLHWL | 0.2 s⁻¹ | 1700 M⁻¹ s⁻¹ | 117 ± 6 µM | – | –
ILAKFLHTL | 0.08 s⁻¹ | 2200 M⁻¹ s⁻¹ | 28 ± 5 µM | 58.7 °C | –
ILAKFLYWL | – | – | 82 ± 8 µM | – | –
ILGKFLHRL | – | – | – | 55.9 °C | koff (ILA1 TCR [3]; [14]): 0.16 s⁻¹; kon (ILA1 TCR [3]; [14]): 30000 M⁻¹ s⁻¹; Kd (ILA1 TCR [3]): 1 ± 0.1 µM
